Experimental data taken from US9241493B2, “Use of an enaminocarbonyl compound in combination with a biological control agent” (BAYER INTELLECTUAL PROPERTY GMBH, priority 2011, dated 2016).

What was measured:
Type in all cases: in vivo
[1] = system: mustard beetle larvae (Phaedon cochleariae); assay: Phaedon cochleariae larvae test, spray application on Chinese cabbage leaf discs; settings: foliar, 144 h, 100 g ai/ha, 6 d, read-out: Mortality in % after 6 d
Protocol: Phaedon cochleariae Larvae—Spray Application
(§1) To produce a suitable preparation of active compound, 1 part by weight of active compound is mixed with the stated amount of solvent and emulsifier, and the concentrate is diluted with emulsifier-containing water to the desired concentration. To produce a suitable preparation of a biological suspension the cells, viruses or spores are diluted with emulsifier-containing water to the desired concentration.
Chinese cabbage (Brassica pekinesis) leaf—discs are sprayed with a preparation of the active ingredient of the desired concentration. Once dry, the leaf discs are infested with mustard beetle larvae (Phaedon cochleariae).
(§2) After the specified period of time, mortality in % is determined. 100% means that all the beetle larvae have been killed; 0% means that none of the beetle larvae have been killed. The mortality values thus determined are recalculated using the Colby-formula.

[2] = system: Green peach aphid (Myzus persicae); assay: Myzus persicae test, foliar application on infested cabbage leaves; settings: 144 h, 100 g ai/ha, foliar spray, 6 d, read-out: Mortality in % after 6 d
Protocol: Myzus persicae—Foliar Application
as §1, with “cells” for “cells, viruses”
Cabbage leaves (Brassica oleracea) which are heavily infested by the Green peach aphid (Myzus persicae) are treated by being sprayed with the preparation of the active compound at the desired concentration.
After the specified period of time, mortality in % is determined. 100% means that all the aphids have been killed; 0% means that none of the aphids have been killed. The mortality values thus determined are recalculated using the Colby-formula.

[3] = system: Seeds of soybean (Glycine max); assay: Seed treatment, germination test soybean; settings: 0.3 g ai/kg seeds (head: g ai/kg seeds)
Protocol: Seed Treatment—Germination Test Soybean
Seeds of soybean (Glycine max) were treated by being mixed with the desired amount of active compound and spores and water. After drying, 25 seeds were sown into each pot filled with sandy loam.
After 4 days the level of activity expressed in % was determined. The level of activity was calculated on the basis of the number of soybean plants which have successfully germinated.

[4] = system: Green peach aphid (Myzus persicae); assay: Myzus persicae test, spray application on Chinese cabbage leaf discs; settings: foliar, 24 h, 20 g ai/ha, 1 d, read-out: Mortality in % after 1 d
Protocol: Myzus persicae—Test (Spray Application)
as §1, with “cells” for “cells, viruses”
Chinese cabbage (Brassica pekinesis) leaf—discs infected with all instars of the green peach aphid (Myzus persicae), are sprayed with a preparation of the active ingredient at the desired concentration.
After the specified period of time mortality in % is determined. 100% means that all aphids have been killed; 0% means that none of the aphids have been killed.

[5] = system: larvae of the mustard beetle (Phaedon cochleariae); assay: Phaedon cochleariae larvae test, foliar application on cabbage leaves; settings: 48 h, 60 g ai/ha, foliar spray, 2 d, read-out: Mortality in % after 2 d
Protocol: Phaedon cochleariae Larvae—Foliar Application
as §1, with “spore” for “biological”, “the” for “the cells, viruses or”
Cabbage leaves (Brassica oleracea) are treated by being sprayed with the preparation of the active compound of the desired concentration and are infested with larvae of the mustard beetle (Phaedon cochleariae) as long as the leaves are still moist.
as §2

[6] = system: larvae of the Banded Cucumber Beetle (Diabrotica balteata); assay: Diabrotica balteata larvae test, soil application, corn; settings: 60 g ai/ha, mixed into soil, based on number of germinated corn plants
Protocol: Diabrotica balteata Test/Larvae—Soil Application
as §1, with “spore” for “biological”, “the” for “the cells, viruses or”
The preparation containing the active ingredient is thoroughly mixed into the soil. […] The treated soil is filled into pots and sown with 5 corn seeds per pot. 3 days after sowing larvae of the Banded Cucumber Beetle (Diabrotica balteata) are placed in the soil.
After the desired period of time the level of activity expressed in % is determined. The level of activity is calculated on the basis of the number of corn plants which have successfully germinated. The efficacy values determined thus are recalculated using the Colby-formula.

`O=C1C=C(N(Cc2ccc(Cl)nc2)CC(F)F)CO1` [Compound (I-3), 4-{[(6-Chloropyrid-3-yl)methyl](2,2-difluorethyl)amino}furan-2(5H)-one] was tested, and the mortality at 100 g/ha [1] was 0%, the mortality at 100 g/ha [2] was 90% and the “Germination in % related to untreated control, evaluation after 4 d” value [3] was 72.73%. For the same molecule, the mortality at 20 g/ha [4] was 0%, the mortality at 60 g/ha [5] was 20% and the “Efficacy in % after 5 d” value [6] was 75%.
